One assay has as its target T1, MYCbHLHZip (Homo sapiens, UniProt P01106).
T1 construct: An amino coupling procedure was used to immobilize MYCbHLHZip protein on a CM5 sensor chip
As to the kind of experiment: Assay 2A MYC binding MST assay. Conditions: approximately 200 nM labelled MYC, compound titrated. As for the experimental part: (§1) FIG. 2: A) MST assay of Example 1 effect on MYC and MAX, respectively. Recombinant MYC bHLHZip and MAX bHLHZip proteins were titrated, respectively, in a fixed concentration (3 μM) of Example 1. Changes in fluorescence were measured and normalized to control (buffer). Data are shown as mean±standard deviation of 6-8 biological repeats. B) MST assay of MYC (reverse MST). A fixed concentration of 200 nM labeled MYC was mixed with different concentrations of Example 1 as indicated. Data are shown as mean±standard deviation of 5 biological repeats. C) MST assay of Example 2 effect on MYC. D) MST assay of MYC with a control compound (non-binder).
Assay 2A. MYC Binding MST Assay
(§2) The MYC MST assay was performed as described above (Biological example 1—Assay 1A), except that the fluorescent molecule was either protein or Example 1. The example compound was kept at a fix concentration of 3 μM in PBS supplemented with 0.05% Tween-20, while MYCbHLHZip or MAX was titrated. The migration of example compound changed at MYC protein concentrations above 1 μM, but was unaffected with MAX up to highest concentration tested (15 μM) (FIG. 2A). […]

Another assay concerns the target T2, MAX bHLHZip (Homo sapiens, UniProt P61244).
T2 construct: Recombinant MYC bHLHZip and MAX bHLHZip proteins were titrated
As to the kind of experiment: Assay 2A MST assay with MAX. The class given is binding. Conditions: compound fixed at 3 μM, MAX titrated, highest concentration tested 15 μM. As for the experimental part:
as §1
as §2, with “2A). In a reverse experiment, Example 1 was titrated in a fixed protein concentration in PBS supplemented with 0.05% Tween-20 and 1% DMSO as described above after labelling primary amines of the protein using the Protein labelling kit GREEN-NHS (NanoTemper) according to manufacturer's protocol.” for “2A).”

Assay [1] deals with T3, endogenous MYC:MAX interaction in MDA-MB231 cells (Homo sapiens, UniProt P01106).
T3 construct: endogenous in cells; host or cells: MDA-MB231
As to the kind of experiment: Assay 3A isPLA assay, MYC:MAX. It counts as cell-based. The source says:
FIG. 4: A) Endogenous MYC:MAX (upper panel) and FRA1:JUN (lower panel) interactions as visualized as fluorescent red dots by isPLA. Nuclei were counterstained with DAPI (blue). […] As negative control, primary antibody pairs but only one oligo-conjugated secondary antibody was used. B) Quantification of MYC:MAX and C) FRA1:JUN isPLA, representing an average number of nuclear dots per cell from three microscopic fields normalized to corresponding values for DMSO-treated cells. […] 1st-4th lanes from top; coimmunoprecipitated MAX, immunoprecipitated MYC, total levels of MAX and ACTIN, respectively, as determined by western blot analysis. E) MYC:MAX GLuc assay in cells. […] 24 hours later cells were treated with […] of Example 1, Example 2 and control compound for 16 hours and thereafter analyzed in a dual luciferase assay. The ratio of Gaussia/Firefly luciferase luminescence were calculated and normalized to DMSO-treated cells.
Assay 3A: The isPLA Assay
Identification of endogenous protein-protein interactions in fixed cells and has been described (Soderberg, O. et al., Nat Methods, 3, 995-1000 (2006)). […] Endogenous MYC:MAX or FRA-1:JUN protein interactions were visualized by fluorescence microscopy as fluorescent dots mainly localized in the cell nucleus. […]

The subject of assay [2] is MYCN-amplified neuroblastoma cells (SK-N-DZ, Kelly, IMR-32). As to the kind of experiment: Assay 5A neuroblastoma cell growth (WST-1), MYCN-amplified. The class given is cell-based. Conditions: Homo sapiens, second run. The method, then: (§3) FIG. 6: A-B) Neuroblastoma cell lines with (SK-N-DZ, Kelly and IMR-32) or without (SK-N-F1, SK-N-RA and SK-N-AS) MYCN-amplification were exposed to different concentrations of Example 1, Example 2 and control compound, respectively, for 48 hours. Cell growth and viability was estimated by measuring metabolic activity. C) Growth of TGR-1 (wt), HO15.19 (MYC knockout) and HOmyc3 (MYC reconstituted HO15.19) Rat1 fibroblasts, as measured by the WST-1 assay after treatment with Example 1. Data are shown as mean±standard deviation of 3-5 biological experiments, each with 3 technical repeats.
(§4) Assay 5A: Neuroblastoma Cell Growth
(§5) Neuroblastoma cell lines with (SK-N-DZ, Kelly and IMR-32) or without (SK-N-F1, SK-N-RA and SK-N-AS) MYCN-amplification were exposed to different concentrations of example compounds for 48 hours. Cell growth and viability was estimated by measuring metabolic activity by incubating cells in triplicates with WST-1 (Roche) in medium at 37° C. and 5% CO2 for 2 hours after which absorbance was measured with an Omega Fluostar (BMG Labtech) in a 96 well plate format.

Assay [3] concerns non-MYCN-amplified neuroblastoma cells (SK-N-F1, SK-N-RA, SK-N-AS). As to the kind of experiment: Assay 5A neuroblastoma cell growth (WST-1), non-MYCN-amplified. It counts as cell-based. As for the experimental part: as §3, §4, §5

T3 sequence (P01106 whole entry): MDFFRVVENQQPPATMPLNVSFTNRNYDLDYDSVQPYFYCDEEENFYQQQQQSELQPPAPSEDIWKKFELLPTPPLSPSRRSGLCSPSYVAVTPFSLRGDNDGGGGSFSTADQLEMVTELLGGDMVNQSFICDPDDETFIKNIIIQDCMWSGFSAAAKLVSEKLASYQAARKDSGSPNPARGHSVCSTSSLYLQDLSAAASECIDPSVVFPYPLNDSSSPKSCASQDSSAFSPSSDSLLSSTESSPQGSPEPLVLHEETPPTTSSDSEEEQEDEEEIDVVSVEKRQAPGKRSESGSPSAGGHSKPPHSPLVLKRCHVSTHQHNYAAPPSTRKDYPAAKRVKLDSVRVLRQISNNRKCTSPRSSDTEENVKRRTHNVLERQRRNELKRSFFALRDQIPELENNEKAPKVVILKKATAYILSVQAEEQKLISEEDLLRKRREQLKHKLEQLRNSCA
T1 sequence (P01106 368-449 limits assumed): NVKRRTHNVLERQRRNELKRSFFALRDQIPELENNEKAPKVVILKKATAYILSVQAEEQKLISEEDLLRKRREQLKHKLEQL
T2 sequence (P61244 22-102): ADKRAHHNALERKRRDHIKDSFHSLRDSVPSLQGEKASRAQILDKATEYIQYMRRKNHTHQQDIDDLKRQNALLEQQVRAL

With `CCOc1ccc2nc3cc(/N=N/c4ccc(N)nc4N)ccc3c(N)c2c1` [Example 1, 3-((9-amino-7-ethoxyacridin-3-yl)diazenyl)pyridine-2,6-diamine sulphate hydrate], the “compound concentration affecting migration of MYC (reverse MST)” value on MYCbHLHZip is 200 to 400 nM. In addition, the “Effect on thermophoresis (MAX protein concentration)” value at MAX bHLHZip was over 15 µM. The “isPLA signals, % of DMSO control” value in assay [1] (10 μM, 24 hours) is given as 7%. Besides, in assay [1] (MDA-MB-231), the inhibition at 10 µM came to 95%. Moreover, the GI50 in assay [2] was 2.5 µM; in assay [3] (Homo sapiens, SK-N-AS, 48 h, first run) it was over 20 µM; in assay [3] (Homo sapiens, SK-N-AS, second run) it was over 25 µM; in assay [3] (first run, 48 hours, sulphate hydrate), over 25 µM.

The record behind these values is patent US11896589B2, “Diazinyl amino acridines and medical uses thereof” (MyCural Therapeutics AB, priority 2018, dated 2024).
